Source: patent publication EP0256258A2, “Salts of methoxyphenyl-dimethylaminomethyl-cyclohexanol, medicaments containing these and process for their preparation” (Grünenthal GmbH, priority 1986, dated 1988)
≈ marks a conversion by molar mass, not a printed value. Counter-ions that a name gives are not always drawn.

Columns and labels:
[1] = Dissolution rate of finely powdered substance under USP XXI conditions (apparatus 2) in artificial intestinal juice; conditions: pH 7
physchem = conditions: water

Structure (SMILES) | gelöst / in Lösung gegangen nach 2 Minuten [1] [%] | solubility (physchem) [mg/mL] | solubility (Solubility in water) [mg/mL]
COc1cccc([C@@]2(O)CCCC[C@@H]2CN(C)C)c1 (racemic) [I-Hydrochlorid, 1e-(m-Methoxyphenyl)-2e-dimethylaminomethyl-cyclohexan-1-(a)-ol] | > 97 | 298 | 
O=C(O)Cc1ccccc1Nc1c(Cl)cccc1Cl [II-Natriumsalz, 2-(2ʹ,6ʹ-Dichloranilino)-phenylessigsäure] |  |  | ~30 (≈ 101 mM)
